Source: paper PMC2799336 (Journal of the American Chemical Society, 2009)

Key:
[1] = target: T1, E. coli lipoic acid ligase (LplA) (Escherichia coli, UniProt P32099); assay: HPLC kinetics of LplA-catalyzed lipoylation; type: biochemical
[2] = test system: LplA; details: 1:10, 1:100, 1:1000 mixtures of E2p:LAP1; 300 nM LplA, 30 minutes; PCR analysis
[3] = target: T1, E. coli lipoic acid ligase (LplA); details: azide 7 ligation; cited from earlier work
[4] = test system: LplA; details: cited from earlier work
[5] = test system: LplA
[6] = test system: LplA; details: LAP2 fused to the C- rather than N-terminus of HP1; 50 nM LplA, 1 hour, 30 °C; HPLC
[7] = test system: biotin ligase (BirA); details: 12 hour reaction with 5 μM BirA; HPLC; data not shown
[8] = test system: HeLa mammalian cells; assay: Surface expression of LAP-CFP-TM fusions in mammalian cells; details: CFP fluorescence

T1 sequence (P32099 whole entry): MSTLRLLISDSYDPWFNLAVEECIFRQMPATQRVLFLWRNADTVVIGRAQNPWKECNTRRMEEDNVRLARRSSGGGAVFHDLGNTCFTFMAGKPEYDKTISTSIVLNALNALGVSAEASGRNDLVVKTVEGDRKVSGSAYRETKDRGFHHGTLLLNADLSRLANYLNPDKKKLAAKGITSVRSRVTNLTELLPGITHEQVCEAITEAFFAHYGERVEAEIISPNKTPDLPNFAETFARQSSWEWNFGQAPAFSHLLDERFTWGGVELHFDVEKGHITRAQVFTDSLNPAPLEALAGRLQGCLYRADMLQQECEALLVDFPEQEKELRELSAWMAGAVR

Sequence | Km ([1]; read-out: Km (estimated), LAP1, estimated, measured by HPLC, data not shown) [µM] | yeast remaining after one round of selection [2] | kcat [3] [s⁻¹] | ligation of lipoic acid, alkyl azide, aryl azide ([4]; LAP1 fusion proteins) | labeling at the cell surface ([4]; LAP1 fusions) | ligation of bromoalkanoic acid and coumarin ([4]; LAP1 fusions) | kcat/Km fold worse than natural lipoate and biotin acceptor proteins ([1]; LAP2 versus natural acceptor proteins) [fold] | kcat/Km fold better than LAP1 ([1]; LAP2 versus previous rationally-designed 22-amino acid LAP1) [fold] | kcat/Km ([1]; lipoylation of synthetic LAP2 peptide, 50 nM LplA, 750 μM lipoic acid, 2 mM ATP, 5 mM magnesium acetate in DPBS, 30 °C, LAP2 5.5-352 μM, HPLC, Michaelis-Menten) [µM⁻¹ min⁻¹] | cell surface lipoylation compared with E2p ([5]; CFP-TM fusions in HEK cells, average signal ratios, Figure S5B) | cell surface lipoylation of fusion proteins ([5]; even at low expression levels) | conversion to lipoylated product, C-terminal HP1 fusion [6] | biotinylation by BirA [7] | recognition by LplA by position in fusion ([4]; LAP2) | labeling in the cytosol / inside living cells [4] | cell surface expression [8]
DEVLVEIETDKAVLEVPGGEEE [LAP1] | > 200 | could not be detected | 0.048 ± 0.001 | in vitro and in cell lysate, but not on the cell surface except under conditions of high LAP1-POI over-expression | difficult to label at the cell surface | could not be ligated to LAP1 fusions in any context | – | – | – | – | – | – | – | – | – | –
GFEIDKVWYDLDA [LAP2] | – | – | – | – | – | – | 8 | > 70 | 0.99 | comparable even to E2p | could easily lipoylate cell surface LAP2 fusion proteins, even at low expression levels | decreased somewhat, but was still higher than all other LAP sequences at the N-terminus | no biotinylation | can be recognized by LplA at the N-terminus, C-terminus, and internally | allows fluorophore tagging of intracellular proteins | clear cell surface expression
